Laboratory results published in patent publication US8658661B2, “Oxadiazole inhibitors of leukotriene production” (Boehringer Ingelheim International GmbH, priority 2010, dated 2014).

What was measured:
[1] = molecular target: T1, recombinant human FLAP protein (Homo sapiens, UniProt P20292); test: FLAP binding assay (SPA, displacement of [125I]L-691,831); conditions: membranes of sf9 cells expressing recombinant human FLAP; [125I]L-691,831 probe; read-out: FLAP binding IC50
T1 construct: made in house; host or cells: Sf9 insect cells (100,000×g membrane pellet used)
T1 sequence (P20292 1-161): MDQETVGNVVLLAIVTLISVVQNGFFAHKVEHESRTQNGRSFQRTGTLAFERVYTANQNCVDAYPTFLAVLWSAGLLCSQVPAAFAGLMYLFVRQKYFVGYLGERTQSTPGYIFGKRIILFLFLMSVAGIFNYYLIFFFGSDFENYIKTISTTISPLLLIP
Experimental: Assessment of Biological Properties 1. Binding Assay
Compounds are assessed for the ability to bind to FLAP in a binding assay that measures compound-specific displacement of an iodinated (^125I) FLAP inhibitor via a Scintillation Proximity Assay format (adapted from S. Charleson et al., Mol. Pharmacol., 1992, 41, 873-879).
Cell pellets produced from sf9 insect cells expressing recombinant human FLAP protein are resuspended in buffer A [15 mM Tris-HCl (pH 7.5), 2 mM MgCl2, 0.3 mM EDTA, 1 mM PMSF]. The cells are lysed with a Dounce homogenizer and the material is centrifuged at 10,000×g for 10 minutes. The supernatant is then collected and centrifuged at 100,000×g for 60 minutes. To prepare membrane protein for an assay, an aliquot of the 100,000×g pellet is resuspended in 1 ml of buffer A, Dounce homogenized, and finally subjected to polytron mixing (30 seconds). Membrane protein (25 μl, 5 μg) is mixed with WGA SPA beads (Amersham) and stirred for 1 h. […] (final concentrations: beads, 200 μg/well; protein, 5 μg/well; [^125I] probe, 0 08 nM/well (17 nCi/well). The plates are shaken for 2 h before reading on a Microbeta plate reader. Non-specific binding is determined by the addition of 10 μM cold L-691,831 compound.

[2] = system: synthesis of LTB4 in human whole blood; test: Human whole blood assay (inhibition of LTB4 synthesis, calcimycin stimulated); format: cell-based; conditions: heparinized human whole blood, calcimycin 20 μM, plasma LTB4
Experimental: Compounds are additionally tested in a human whole blood assay to determine their ability to inhibit the synthesis of LTB4 in a cellular system. Compounds are combined with heparinized human whole blood and incubated for 15 minutes at 37° C. Calcimycin (20 μM final, prepared in phosphate-buffered saline, pH 7.4) is then added and the mixture is incubated for another 30 minutes at 37° C. The samples are centrifuged for 5 min at low speed (1500×g) and the plasma layer is removed. Plasma LTB4 concentrations are then measured using an antibody-based homogenous time-resolved fluorescence method (CisBio, Bedford, Mass.).

Row | IC50 [1] | IC50 [2] | Compound
1 | 8.5 nM | 150 nM | Cc1nc(N)ccc1-c1ccc([C@](C)(c2noc(-c3cnn(CC(=O)N(C)C)c3)n2)C2CC2)cc1 [Example 292, 2-[4-(3-{(R)-1-[4-(6-Amino-2-methyl-pyridin-3-yl)-phenyl]-1-cyclopropyl-ethyl}-[1,2,4]oxadiazol-5-yl)-pyrazol-1-yl]-N,N-dimethyl-acetamide]
2 | 32 nM | 690 nM | CC(C)C(C)(c1ccc(-c2cnc(N)nc2)cc1)c1noc(N2CCNC(=O)C2)n1 (centres unmarked) [Example 199, 4-(3-{1-[4-(2-Amino-pyrimidin-5-yl)-phenyl]-1,2-dimethyl-propyl}-[1,2,4]oxadiazol-5-yl)-piperazin-2-one]
3 | 48 nM | 51 nM | COCCn1cc(-c2nc([C@@](C)(c3ccc(-c4cnc(N)c(C)c4)cc3)C3CC3)no2)cn1 [Example 188, 5-[4-((R)-1-Cyclopropyl-1-{5-[1-(2-methoxy-ethyl)-1H-pyrazol-4-yl]-[1,2,4]oxadiazol-3-yl}-ethyl)-phenyl]-3-methyl-pyridin-2-ylamine]
4 | 1.9 nM | 81 nM | COc1ncc(-c2nc(C(C)(c3ccc(-c4cnc(N)nc4)cc3)C(C)C)no2)cn1 (centres unmarked) [Example 155, 5-(4-{2-[5-(2-methoxypyrimidin-5-yl)-1,2,4-oxadiazol-3-yl]-3-methylbutan-2-yl}phenyl)pyrimidin-2-amine]
5 | 1.4 nM | 2700 nM | CC(C)C(C)(c1ccc(-c2cnc(N)nc2)cc1)c1noc(-c2cnn(CC(C)(C)C(=O)O)c2)n1 (centres unmarked) [Example 164, 3-[4-(3-{2-[4-(2-aminopyrimidin-5-yl)phenyl]-3-methylbutan-2-yl}-1,2,4-oxadiazol-5-yl)-1H-pyrazol-1-yl]-2,2-dimethylpropanoic acid]
6 | 4.5 nM | 89 nM | CN(C)C(=O)Cn1cc(-c2nc([C@@](C)(c3ccc(-c4cnc(N)c(F)c4)cc3)C3CC3)no2)cn1 [Example 291, 2-[4-(3-{(R)-1-[4-(6-Amino-5-fluoro-pyridin-3-yl)-phenyl]-1-cyclopropyl-ethyl}-[1,2,4]oxadiazol-5-yl)-pyrazol-1-yl]-N,N-dimethyl-acetamide]
7 | 6.2 nM | 150 nM | CO[C@H]1CCN(C(=O)Cn2cc(-c3nc([C@@](C)(c4ccc(-c5cnc(N)nc5)cc4)C4CC4)no3)cn2)C1 [Example 221, 2-[4-(3-{(R)-1-[4-(2-Amino-pyrimidin-5-yl)-phenyl]-1-cyclopropyl-ethyl}-[1,2,4]oxadiazol-5-yl)-pyrazol-1-yl]-1-((S)-3-methoxy-pyrrolidin-1-yl)-ethanone]
8 | 13 nM | 150 nM | CC(c1ccc(-c2cnc(N)nc2)cc1)(c1noc(N2CCCC2)n1)C1CC1 (centres unmarked) [Example 204, 5-{4-[1-Cyclopropyl-1-(5-pyrrolidin-1-yl-[1,2,4]oxadiazol-3-yl)-ethyl]-phenyl}-pyrimidin-2-ylamine]
9 | 7.5 nM | 150 nM | CN(C)C(=O)Cn1cc(-c2nc(C(C)(c3ccc(-c4ncc(N)nc4C#N)cc3)C3CC3)no2)cn1 (centres unmarked) [Example 295, 2-[4-(3-{1-[4-(5-Amino-3-cyano-pyrazin-2-yl)-phenyl]-1-cyclopropyl-ethyl}-[1,2,4]oxadiazol-5-yl)-pyrazol-1-yl]-N,N-dimethyl-acetamide]
10 | 470 nM | > 5000 nM | CN(C)C(=O)Cn1cc(-c2nc(C(C)(c3ccc(-c4cnc(NC5CC5)nc4)cc3)C3CC3)no2)cn1 (centres unmarked) [Example 250, 2-[4-(3-{1-Cyclopropyl-1-[4-(2-cyclopropylamino-pyrimidin-5-yl)-phenyl]-ethyl}[1,2,4]oxadiazol-5-yl)-pyrazol-1-yl]-N,N-dimethyl-acetamide]
11 | 76 nM | > 5000 nM | CC(C)Nc1ncc(-c2ccc([C@](C)(c3noc(-c4cnn(CC(=O)N(C)C)c4)n3)C3CC3)cc2)cn1 [Example 279, 2-[4-(3-{(R)-1-Cyclopropyl-1-[4-(2-isopropylamino-pyrimidin-5-yl)-phenyl]-ethyl}-[1,2,4]oxadiazol-5-yl)-pyrazol-1-yl]-N,N-dimethyl-acetamide]

More lines, now with the values behind:

Row | Compound | IC50 [1] | IC50 [2]
12 | CC(=O)N1CCC(NC(=O)c2nc(C(C)(c3ccc(-c4cnc(N)nc4)cc3)C(C)C)no2)CC1 (centres unmarked) [Example 86, N-(1-acetylpiperidin-4-yl)-3-{2-[4-(2-aminopyrimidin-5-yl)phenyl]-3-methylbutan-2-yl}-1,2,4-oxadiazole-5-carboxamide] | 190 nM | > 5000 nM
13 | CC(C)(CO)Nc1ccc(-c2nc(C(C)(C)c3ccc(-c4cnc(N)nc4)cc3)no2)cn1 [Example 72, 2-{[5-(3-{2-[4-(2-aminopyrimidin-5-yl)phenyl]propan-2-yl}-1,2,4-oxadiazol-5-yl)pyridin-2-yl]amino}-2-methylpropan-1-ol] | 12 nM | 440 nM
14 | COc1ccc(-c2nc(C(C)(c3ccc(-c4cnc(N)nc4)cc3)C(C)C)no2)cn1 (centres unmarked) [Example 8, 5-(4-{2-[5-(6-methoxypyridin-3-yl)-1,2,4-oxadiazol-3-yl]-3-methylbutan-2-yl}phenyl)pyrimidin-2-amine] | 3.8 nM | 530 nM
15 | Cc1ncc(-c2nc(C(C)(c3ccc(-c4cnc(N)nc4)cc3)C(C)C)no2)cn1 (centres unmarked) [Example 152, 5-(4-{3-methyl-2-[5-(2-methylpyrimidin-5-yl)-1,2,4-oxadiazol-3-yl]butan-2-yl}phenyl)pyrimidin-2-amine] | 3.3 nM | 270 nM
16 | CC(C)[C@](C)(c1ccc(-c2cnc(N)nc2)cc1)c1noc(-c2ccnn2C)n1 [Example 31, 5-(4-{(2R)-3-methyl-2-[5-(1-methyl-1H-pyrazol-5-yl)-1,2,4-oxadiazol-3-yl]butan-2-yl}phenyl)pyrimidin-2-amine] | 1.6 nM | 200 nM
17 | CC(C)C(C)(c1ccc(-c2cnc(N)nc2)cc1)c1noc(N2C3CCC2CC(O)C3)n1 (centres unmarked) [Example 235, 8-(3-{1-[4-(2-Amino-pyrimidin-5-yl)-phenyl]-1,2-dimethyl-propyl}-[1,2,4]oxadiazol-5-yl)-8-aza-bicyclo[3.2.1]octan-3-ol] | 29 nM | 780 nM
18 | CC(C)C(C)(c1ccc(-c2cnc(N)nc2)cc1)c1noc(-c2cncs2)n1 (centres unmarked) [Example 130, 5-(4-{3-methyl-2-[5-(1,3-thiazol-5-yl)-1,2,4-oxadiazol-3-yl]butan-2-yl}phenyl)pyrimidin-2-amine] | 1.4 nM | 180 nM
19 | CC(C)C(C)(c1ccc(-c2cnc(N)nc2)cc1)c1noc(C2CCCCN2)n1 (centres unmarked) [Example 114, 5-(4-{3-methyl-2-[5-(piperidin-2-yl)-1,2,4-oxadiazol-3-yl]butan-2-yl}phenyl)pyrimidin-2-amine] | 21 nM | 1100 nM
20 | CC(C)C(C)(c1ccc(-c2cnc(N)nc2)cc1)c1noc(NCC(C)(C)O)n1 (centres unmarked) [Example 82, 1-[(3-{2-[4-(2-aminopyrimidin-5-yl)phenyl]-3-methylbutan-2-yl}-1,2,4-oxadiazol-5-yl)amino]-2-methylpropan-2-ol] | 13 nM | 220 nM
21 | Cn1cnc(-c2nc(C(C)(c3ccc(-c4cnc(N)nc4)cc3)C3CC3)no2)c1 (centres unmarked) [Example 28, 5-(4-{1-cyclopropyl-1-[5-(1-methyl-1H-imidazol-4-yl)-1,2,4-oxadiazol-3-yl]ethyl}phenyl)pyrimidin-2-amine] | 26 nM | 320 nM
22 | CC(C)C(C)(c1ccc(-c2cnc(N)nc2)cc1)c1noc(-c2ccn[nH]2)n1 (centres unmarked) [Example 19, 5-(4-{3-methyl-2-[5-(1H-pyrazol-5-yl)-1,2,4-oxadiazol-3-yl]butan-2-yl}phenyl)pyrimidin-2-amine] | 5.8 nM | 260 nM
23 | Cn1cc(-c2nc(C(c3ccc(-c4cnc(N)nc4)cc3)C(C)(C)C)no2)cn1 (centres unmarked) [Example 58, 5-(4-{2,2-dimethyl-1-[5-(1-methyl-1H-pyrazol-4-yl)-1,2,4-oxadiazol-3-yl]propyl}phenyl)pyrimidin-2-amine] | 11 nM | 190 nM
24 | CC(C)C(C)(c1ccc(-c2cnc(N)nc2)cc1)c1noc(CC(C)(C)C(=O)O)n1 (centres unmarked) [Example 93, 3-(3-{2-[4-(2-aminopyrimidin-5-yl)phenyl]-3-methylbutan-2-yl}-1,2,4-oxadiazol-5-yl)-2,2-dimethylpropanoic acid] | 240 nM | > 5000 nM
25 | CC(C)(CO)Nc1cnc(-c2nc([C@@](C)(c3ccc(-c4cnc(N)nc4)cc3)C3CC3)no2)cn1 (single isomer, unassigned) [Example 56] | 2.4 nM | 79 nM
